pIC50: −log10 of the molar value.
What was measured:
RNR (RNR1:RNR2 1:1) = target: T1, RNR (RNR1:RNR2 1:1) (Homo sapiens, UniProt P23921); assay: RNR enzyme activity, rapid-fire mass spectrometry (RF/MS) assay; format: biochemical; details: [RNR] 50 nM, 1:1 RNR1:RNR2; CDP 5 μM; ATP 1 mM; 37° C., 45 min; compounds screened up to 50 μM
T1 sequence (P23921 1-792): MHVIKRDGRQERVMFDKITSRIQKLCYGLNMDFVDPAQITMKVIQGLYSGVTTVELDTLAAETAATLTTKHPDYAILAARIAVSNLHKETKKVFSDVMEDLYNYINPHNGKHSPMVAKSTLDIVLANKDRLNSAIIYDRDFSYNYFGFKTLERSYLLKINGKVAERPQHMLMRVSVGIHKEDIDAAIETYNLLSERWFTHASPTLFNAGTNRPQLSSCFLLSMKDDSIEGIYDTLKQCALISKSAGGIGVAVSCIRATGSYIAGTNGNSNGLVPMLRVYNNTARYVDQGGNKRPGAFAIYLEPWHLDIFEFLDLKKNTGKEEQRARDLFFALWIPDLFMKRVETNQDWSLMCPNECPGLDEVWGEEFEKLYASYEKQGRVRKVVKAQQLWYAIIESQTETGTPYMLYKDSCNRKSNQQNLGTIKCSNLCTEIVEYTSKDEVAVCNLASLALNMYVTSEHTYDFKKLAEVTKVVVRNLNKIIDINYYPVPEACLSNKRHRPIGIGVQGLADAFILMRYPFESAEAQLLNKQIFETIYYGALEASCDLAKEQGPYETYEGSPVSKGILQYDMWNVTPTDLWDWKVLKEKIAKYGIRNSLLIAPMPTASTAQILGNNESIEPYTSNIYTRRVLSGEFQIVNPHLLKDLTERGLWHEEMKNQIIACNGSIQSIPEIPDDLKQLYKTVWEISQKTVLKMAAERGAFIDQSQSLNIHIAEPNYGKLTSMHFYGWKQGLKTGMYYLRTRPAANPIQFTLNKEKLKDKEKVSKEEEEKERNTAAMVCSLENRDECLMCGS
Procedure: A rapid-fire mass spectrometry (RF/MS) assay was used to assess RNR enzyme activity using a 384 well plate and a robotic platform.
The plate layout included two validated reference compounds (Triapine (3-AP) and Hydroxyurea (HU)): • A dose response in duplicate; top concentration: 5 μM (3-AP) and 250 μM (HU), semi-log dilutions. • Spike wells in triplicate randomly spotted at four concentrations: • 250 μM, 100 μM, 30 μM and 2 μM for HU • 5 μM, 2 μM, 0.6 μM and 0.04 μM for 3-AP
First, the multidrop pipes were saturated for 30 minutes with enzymatic solution. Then 30 μL of Stop solution was distributed in column 24. Next, 15 μL of enzyme was distributed in column 1 to 24. Next, a pre-incubation step of 15 minutes at room temperature occurred, followed by distribution of 15 μL of substrate solution (column 1 to 24). Next, the plate was incubated for 45 minutes at 37° C. 30 μL of Stop solution was then distributed to columns 1 to 23.
The final parameters for the enzyme reactions were: • Incubation: 37° C., 45 min • [CDP]: 5 μM; [ATP]: 1 mM; [NADPH]: No • [RNR]final: 50 nM with 1:1 (RNR1:RNR2) ratio • Final volume: 30 μL • Stop solution: 6% HCOOH in water

[1] = test system: pCHK1 (S345) in Colo320 DM cells; assay: Alphalisa assay, detection of pCHK1 (S345) in Colo320 DM cells; format: cell-based, human; details: Homo sapiens, COLO 320DM, compound overnight (approximately 16 hours)
Procedure: Colo320 DM cells (ATCC #CCL-220, derived from human colorectal adenocarcinoma, Dukes' type C) were seeded on a […], cell culture treated assay plate at a density of 50,000 cells/well in 200 μL of RPMI-1640 media supplemented with 10% Fetal Bovine Serum and incubated at 37° C. overnight. The following day, test compound dilutions were added directly to the plated cells by a Tecan digital dispenser to a final DMSO concentration of <0.5%. and incubated at 37° C. overnight (approximately 16 hours). The following day all cell culture media was removed from the cells. 75 μL of 1×AlphaLisa lysis buffer was added to each well and plates were agitated on a shaker for 30 minutes at room temperature. The lysis of cells and detection of pCHK1 (S345) were performed with reagents contained within the AlphaLisa Sure Fire assay kit (Perkin Elmer #ALSU-PCHK1-A) according to the manufacturer's instructions. 10 μL of each lysate was then transferred to a white, 384-well assay plate (Perkin Elmer #6008280). 5 μL of Acceptor mix was then added to each well of lysate in the white, 384-well assay plate and incubated in the dark at room temperature for 60 minutes. 5 μL of Donor mix was then added to each well of the white, 384-well assay plate in subdued light and incubated at room temperature for 60 minutes. Plates were read on an Alpha Technology-compatible plate reader using standard AlphaLisa settings.

Structure (SMILES) | pIC50 (RNR (RNR1:RNR2 1:1)) | pIC50 [1]
Cc1ccc(F)c([C@@H](C)[C@@H](c2n[nH]c(=O)o2)N2CN(C(C)C)c3cc(Cl)ccc3S2(=O)=O)c1C [Example 4, 5-((1S,2R)-1-(6-chloro-4-isopropyl-1,1-dioxido-3,4-dihydro-2H-benzo[e][1,2,4]thiadiazin-2-yl)-2-(6-fluoro-2,3-dimethylphenyl)propyl)-1,3,4-oxadiazol-2 (3H)-one] | 6.00 to 7.00 | 5.30 to 6.00
Cc1ccc(F)c([C@@H](C)[C@@H](c2n[nH]c(=O)o2)N2CN(C)c3cc(Cl)cnc3S2(=O)=O)c1C [Example 5, 5-((1S,2R)-1-(6-chloro-4-methyl-1,1-dioxido-3,4-dihydro-2H-pyrido[3,2-e][1,2,4]thiadiazin-2-yl)-2-(6-fluoro-2,3-dimethylphenyl)propyl)-1,3,4-oxadiazol-2 (3H)-one] | 7.00 to 7.70 | 5.30 to 6.00
Cc1ccc(F)c([C@@H](C)[C@@H](c2n[nH]c(=O)o2)N2CN(C3CC3)c3cc(Cl)ccc3S2(=O)=O)c1C [Example 6, 5-((1S,2R)-1-(6-chloro-4-cyclopropyl-1,1-dioxido-3,4-dihydro-2H-benzo[e][1,2,4]thiadiazin-2-yl)-2-(6-fluoro-2,3-dimethylphenyl)propyl)-1,3,4-oxadiazol-2 (3H)-one] | 7.00 to 7.70 | ≥ 6.00
Cc1ccc(F)c([C@@H](C)[C@@H](c2n[nH]c(=O)o2)N2COc3cc(Cl)ccc3S2(=O)=O)c1C [Example 7, 5-((1S,2R)-1-(6-chloro-1,1-dioxidobenzo[e][1,4,3]oxathiazin-2 (3H)-yl)-2-(6-fluoro-2,3-dimethylphenyl)propyl)-1,3,4-oxadiazol-2 (3H)-one] | 7.00 to 7.70 | ≥ 6.00
[2H]C([2H])([2H])N1CN([C@H](c2n[nH]c(=O)o2)[C@H](C)c2c(F)ccc(C)c2C)S(=O)(=O)c2ccc(Cl)cc21 [Example 9, 5-((1S,2R)-1-(6-chloro-4-(methyl-d3)-1,1-dioxido-3,4-dihydro-2H-benzo[e][1,2,4]thiadiazin-2-yl)-2-(6-fluoro-2,3-dimethylphenyl)propyl)-1,3,4-oxadiazol-2 (3H)-one] | 7.00 to 7.70 | ≥ 6.00
CCCN1CN([C@H](c2n[nH]c(=O)o2)[C@H](C)c2c(F)ccc(C)c2C)S(=O)(=O)c2ccc(Cl)cc21 [Example 10, 5-((1S,2R)-1-(6-chloro-1,1-dioxido-4-propyl-3,4-dihydro-2H-benzo[e][1,2,4]thiadiazin-2-yl)-2-(6-fluoro-2,3-dimethylphenyl)propyl)-1,3,4-oxadiazol-2 (3H)-one] | > 7.70 | ≥ 6.00
Cc1cc2c(cc1Cl)N(C)CN([C@H](c1n[nH]c(=O)o1)[C@H](C)c1c(F)ccc(C)c1C)S2(=O)=O [Example 12, 5-((1S,2R)-1-(6-chloro-4,7-dimethyl-1,1-dioxido-3,4-dihydro-2H-benzo[e][1,2,4]thiadiazin-2-yl)-2-(6-fluoro-2,3-dimethylphenyl)propyl)-1,3,4-oxadiazol-2 (3H)-one] | 7.00 to 7.70 | 5.00 to 5.30
Cc1ccc(F)c([C@@H](C)[C@@H](c2n[nH]c(=O)o2)N2CCN(C)c3cc(Cl)ccc3S2(=O)=O)c1C [Example 13, 5-((1S,2R)-1-(7-chloro-5-methyl-1,1-dioxido-4,5-dihydrobenzo[f][1,2,5]thiadiazepin-2 (3H)-yl)-2-(6-fluoro-2,3-dimethylphenyl)propyl)-1,3,4-oxadiazol-2 (3H)-one] | 7.00 to 7.70 | 5.30 to 6.00
Cc1ccc(F)c([C@@H](C)[C@@H](c2n[nH]c(=O)o2)N2CC(=O)N(C)c3cc(Cl)ccc3S2(=O)=O)c1C [Example 14, 5-((1S,2R)-1-(7-chloro-5-methyl-1,1-dioxido-4-oxo-4,5-dihydrobenzo[f][1,2,5]thiadiazepin-2 (3H)-yl)-2-(6-fluoro-2,3-dimethylphenyl)propyl)-1,3,4-oxadiazol-2 (3H)-one] | 7.00 to 7.70 | 5.30 to 6.00
Cc1ccc(F)c([C@@H](C)[C@@H](c2n[nH]c(=O)o2)N2CCOc3cc(Cl)ncc3S2(=O)=O)c1C [Example 17, 5-((1S, 2R)-1-(7-chloro-1,1-dioxido-3,4-dihydro-2H-pyrido[4,3-b][1,4,5]oxathiazepin-2-yl)-2-(6-fluoro-2,3-dimethylphenyl)propyl)-1,3,4-oxadiazol-2 (3H)-one] | 5.00 to 6.00 | < 4.30

The remaining lines, values ahead:

pIC50 (RNR (RNR1:RNR2 1:1)) | pIC50 [1] | Structure (SMILES)
> 7.70 | 5.30 to 6.00 | Cc1ccc(F)c([C@@H](C)[C@@H](c2n[nH]c(=O)o2)N2CCOc3c(ccc(Cl)c3[C@H](C)N(C)C)S2(=O)=O)c1C (single isomer, unassigned) [Example 53]
> 7.70 | 5.30 to 6.00 | Cc1ccc(F)c([C@@H](C)[C@@H](c2n[nH]c(=O)o2)N2CCOc3c(ccc(Cl)c3[C@@H](C)N(C)C)S2(=O)=O)c1C (single isomer, unassigned) [Example 54]
> 7.70 | ≥ 6.00 | Cc1ccc(F)c([C@@H](C)[C@@H](c2n[nH]c(=O)o2)N2CN(C3CCCOC3)c3cc(Cl)ccc3S2(=O)=O)c1C (stereo in doubt) [Example 43, 5-((1S,2R)-1-(6-chloro-1,1-dioxido-4-((S)-tetrahydro-2H-pyran-3-yl)-3,4-dihydro-2H-benzo[e][1,2,4]thiadiazin-2-yl)-2-(6-fluoro-2,3-dimethylphenyl)propyl)-1,3,4-oxadiazol-2 (3H)-one]
> 7.70 | ≥ 6.00 | Cc1ccc(F)c([C@@H](C)[C@@H](c2n[nH]c(=O)o2)N2CN(C3CCCOC3)c3cc(Cl)ccc3S2(=O)=O)c1C (stereo in doubt) [Example 44, 5-((1S,2R)-1-(6-chloro-1,1-dioxido-4-((R)-tetrahydro-2H-pyran-3-yl)-3,4-dihydro-2H-benzo[e][1,2,4]thiadiazin-2-yl)-2-(6-fluoro-2,3-dimethylphenyl)propyl)-1,3,4-oxadiazol-2 (3H)-one]
6.00 to 7.00 | < 4.30 | Cc1cc2c(cc1Cl)OCCN([C@H](c1n[nH]c(=O)o1)[C@H](C)c1c(F)ccc(C)c1C)S2(=O)=O [Example 15, 5-((1S,2R)-1-(7-chloro-8-methyl-1,1-dioxido-3,4-dihydro-2H-benzo[b][1,4,5]oxathiazepin-2-yl)-2-(6-fluoro-2,3-dimethylphenyl)propyl)-1,3,4-oxadiazol-2 (3H)-one]
7.00 to 7.70 | 5.30 to 6.00 | Cc1ccc(F)c([C@@H](C)[C@@H](c2n[nH]c(=O)o2)N2CCOc3cc(Cl)cnc3S2(=O)=O)c1C [Example 16, 5-((1S,2R)-1-(7-chloro-1,1-dioxido-3,4-dihydro-2H-pyrido[3,2-b][1,4,5]oxathiazepin-2-yl)-2-(6-fluoro-2,3-dimethylphenyl)propyl)-1,3,4-oxadiazol-2 (3H)-one]
6.00 to 7.00 | 4.30 to 5.00 | COC(=O)c1cc(Cl)cc2c1S(=O)(=O)N([C@H](c1n[nH]c(=O)o1)[C@H](C)c1c(F)ccc(C)c1C)CCO2 [Example 18, methyl 7-chloro-2-((1S,2R)-2-(6-fluoro-2,3-dimethylphenyl)-1-(5-oxo-4,5-dihydro-1,3,4-oxadiazol-2-yl)propyl)-3,4-dihydro-2H-benzo[b][1,4,5]oxathiazepine-9-carboxylate 1,1-dioxide]

From patent publication US20260085067A1, “CYCLIC SULFONAMIDE RIBONUCLEOTIDE REDUCTASE (RNR) INHIBITORS AND USES THEREOF” (Boundless Bio, Inc., priority 2022, published 2026)
